Source: PMC5430874 (Scientific Reports, 2017)
Substitutions are numbered along the chain they refer to. Read-outs that look alike come from different tables or passages of the source.

Experiments:
GPR139 N271A^7×38 = biological target: T1, GPR139 N271A^7×38 (Homo sapiens, UniProt Q6DWJ6, N271A); assay: Fluo-4 Ca2+-assay, GPR139 mutant N271A; format: cell-based; parameters: key to Emax ± SEM: NE: no effect (loss of activity); conditions: for EC50: N271A mutant (surface expression 53% of WT); for Change of in vitro potency: N271A mutant versus WT
T1 construct: mGluR5 signal peptide (N); expressed in transfected cells; host or cells: HEK293
T1 sequence (Q6DWJ6 2-353 N271A limits assumed): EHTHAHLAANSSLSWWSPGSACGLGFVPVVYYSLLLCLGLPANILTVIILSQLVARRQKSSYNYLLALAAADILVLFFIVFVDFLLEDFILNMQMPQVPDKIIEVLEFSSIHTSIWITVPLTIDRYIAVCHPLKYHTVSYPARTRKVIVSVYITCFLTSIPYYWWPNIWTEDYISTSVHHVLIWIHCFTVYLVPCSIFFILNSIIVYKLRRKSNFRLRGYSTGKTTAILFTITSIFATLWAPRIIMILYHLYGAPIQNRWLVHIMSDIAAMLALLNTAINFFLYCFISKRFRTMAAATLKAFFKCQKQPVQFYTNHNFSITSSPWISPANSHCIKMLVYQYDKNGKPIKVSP
Excerpt: (§1) To study the influence of specific amino acids in the predicted binding pocket on receptor function, the desired mutations were introduced into an N-terminally c-myc-tagged wild type human GPR139 (NM_001002911.3) in the pEGFP-N1 vector (BD Biosciences)[32], [33]. As previously described, these plasmids carry the signal peptide of mGluR5 to promote cell surface expression followed by a c-myc epitope to enable detection of total and surface expression by ELISA, followed by an engineered MluI and NotI site for easy insertion of the receptor of interest. Furthermore, the start-codon in the GPR139 sequence was deleted to ensure c-myc-tagging. Mutagenesis was designed in Serial Cloner 2.6 (© Franck Perez [SerialBasics]) and carried out by GenScript (USA). All mutated residues are illustrated in Supplementary Fig. 1b. An untagged GPR139(WT) in pEGFP-N1 was also generated to ensure that the c-myc-tag had no influence on GPR139(WT) function.
(§2) All GPR139 mutants were transfected into HEK293 cells. The HEK293 cells were grown in Dulbecco’s modified Eagle’s medium (DMEM) (Gibco, 41965) supplemented with 10% dialyzed fetal bovine serum (Gibco, 26400, United States origin), 100 units/mL penicillin and 100 μg/mL streptomycin (Gibco, 15140). HEK293 cells were reverse transfected using Lipofectamine2000 (Invitrogen). More specifically two mixtures were made: 1) 10 ng DNA/well + 25 μL Opti-MEM/well and 2) […] Lipofectamine2000/well + 25 μL Opti-MEM/well. The two mixtures were mixed and 50 μL/well was added directly in black 96-well plates with flat clear bottoms for the Fluo-4 Ca^2+-assay (Corning, Falcon, 353219) or in white Opaque 96-well Microplate (PerkinElmer Life, 6005680) for ELISA. 100 μL containing 20,000 cells were added to each well and incubated 48 hours before assays. All plates were coated with poly-D-lysine.
(§3) Compound 1a (1a) was kindly provided by H. Lundbeck A/S, Denmark. […] Both compounds were dissolved to 20 mM in DMSO (Sigma, D2650) and subsequently diluted in a HEPES buffer (HBSS (Gibco, 14025) supplemented with 20 mM HEPES + 1 mM MgCl2 + 1 mM CaCl2, pH = 7.4) to a final concentration of 0.5% DMSO in the Fluo-4 Ca^2+-assay. The DMSO level was kept constant for all concentrations of both compounds. DMSO was confirmed not to have any activity by itself at this concentration. L-Trp (T0254) and L -Phe (P2126) were obtained from Sigma-Aldrich and dissolved in buffer.
(§4) The Ca^2+ measurements were preformed using the Fluo-4 NW Calcium Assay Kit (Invitrogen, Molecular Probes, F36206) as previously described. Briefly, the Fluo-4 dye loading solution was prepared according to the manufacturer’s instructions by dissolving it in HEPES-buffer supplemented with 2.5 mM probenecid. 50 μL dye loading solution was added to each well. Cells were incubated with the Fluo-4 dye for 60 min at 37 °C, then washed with 100 μL HEPES-buffer. 100 μL HEPES-buffer supplemented with 2.5 mM probenecid was then added to each well and incubated in 10 minutes at 37 °C before measurement. […] Intracellular calcium changes were recorded as indicated on either a NOVOstar (BMG Labtech) at 37 °C with an excitation filter of 485 nm and an emission filters 520 nm or a FlexStation 3 Benchtop Multi-Mode Microplate Reader (Molecular Devices) at 37 °C with an excitation wavelength of 485 nm and emission of 525 nm.
(§5) All pharmacological data have been analyzed by using Prism 6.0 (GraphPad Software Inc., San Diego). Fitting of concentration response curves was performed by non-linear regression log(agonist) vs. response (four parameters). Pooled data are shown with standard error of the mean (S.E.M.) and data showing one representative are shown with standard deviation (S.D.). Changes in potency (pEC50) and span of myc-GPR139(WT) in comparison to untagged GPR139(WT) was statistically analyzed with a paired t-test and significance was accepted at p < 0.05. The ELISA data were normalized to surface expression of myc-GPR139(WT) (100%). […]

myc-GPR139(WT) = biological target: T2, myc-GPR139(WT) (Homo sapiens, UniProt Q6DWJ6); assay: Fluo-4 Ca2+-assay, myc-tagged wild-type GPR139 in HEK293; format: cell-based; conditions: for Emax: HEK293; for EC50: Fluo-4 Ca2+-assay
T2 construct: mGluR5 signal peptide (N); expressed in transfected cells; host or cells: HEK293
T2 sequence (Q6DWJ6 2-353 limits assumed): T1 sequence (Q6DWJ6 2-353 N271A limits assumed) with A270N
Excerpt: as §1, §2, §3, §4, §5

[1] = WT, HEK293, three independent experiments, read-out: pEC50 ± SEM (converted)

Row | EC50 (GPR139 N271A^7×38) [µM] | Change of in vitro potency (GPR139 N271A^7×38) | Emax ± SEM (GPR139 N271A^7×38; N271A, at 100 μM, normalized to buffer (0%) and 100 μM 7c (100%) on WT) | Emax (myc-GPR139(WT)) [%] | EC50 (myc-GPR139(WT); [1]) [µM] | Emax ± SEM (GPR139 N271A^7×38; N271A, at 8 μM, normalized to buffer (0%) and 8 μM 1a (100%) on WT) | EC50 (myc-GPR139(WT); myc-tagged wild-type (WT) receptor, read-out: EC50) [µM] | Emax at 30000 µM (GPR139 N271A^7×38; N271A, at 30 mM, normalized to buffer (0%) and 30 mM Phe (100%) on WT) [%] | Emax (myc-GPR139(WT); WT, normalized to buffer (0%) and 30 mM Phe (100%)) [%] | Compound | Emax at 10000 µM (GPR139 N271A^7×38; N271A, at 10 mM, normalized to buffer (0%) and 10 mM Trp (100%) on WT) [%] | Emax (myc-GPR139(WT); WT, normalized to buffer (0%) and 10 mM Trp (100%)) [%]
1 | > 100 | Loss of function | NE** | 100 | 0.0479 | – | – | – | – | C[C@@H](NC(=O)CNC(=O)c1cccc(Cl)c1)c1ccccc1 (racemic) [Compound 7c] | – | –
2 | > 7.94 | Loss of function | – | – | 0.234 | NE* | 0.67 | – | – | COc1cc(OC)cc(C(=O)NNC(=O)Nc2cccc3ccccc23)c1 [Compound 1a] | – | –
3 | > 31600 | – | – | – | 372 | – | – | 38 ± 9 | 100 | N[C@@H](Cc1ccccc1)C(=O)O [L-Phe, phenylalanine] | – | –

Row | Compound | EC50 (GPR139 N271A^7×38) [µM] | Change of in vitro potency (GPR139 N271A^7×38) | Emax ± SEM (GPR139 N271A^7×38; N271A, at 100 μM, normalized to buffer (0%) and 100 μM 7c (100%) on WT) | Emax (myc-GPR139(WT)) [%] | EC50 (myc-GPR139(WT); [1]) [µM] | Emax ± SEM (GPR139 N271A^7×38; N271A, at 8 μM, normalized to buffer (0%) and 8 μM 1a (100%) on WT) | EC50 (myc-GPR139(WT); myc-tagged wild-type (WT) receptor, read-out: EC50) [µM] | Emax at 30000 µM (GPR139 N271A^7×38; N271A, at 30 mM, normalized to buffer (0%) and 30 mM Phe (100%) on WT) [%] | Emax (myc-GPR139(WT); WT, normalized to buffer (0%) and 30 mM Phe (100%)) [%] | Emax at 10000 µM (GPR139 N271A^7×38; N271A, at 10 mM, normalized to buffer (0%) and 10 mM Trp (100%) on WT) [%] | Emax (myc-GPR139(WT); WT, normalized to buffer (0%) and 10 mM Trp (100%)) [%]
4 | N[C@@H](Cc1c[nH]c2ccccc12)C(=O)O [L-Trp, tryptophan] | > 10000 | – | – | – | 200 | – | – | – | – | 31 ± 5 | 100
